Assay results reported in the supplement of paper PMC10307832.

What was measured:
Test in all cases: relative viability (nuclei count vs DMSO), 5 days (fraction); higher = more cells survive
Dactolisib + Tozasertib = compound: Cn1c(=O)n(-c2ccc(C(C)(C)C#N)cc2)c2c3cc(-c4cnc5ccccc5c4)ccc3ncc21 [Dactolisib] + Cc1cc(Nc2cc(N3CCN(C)CC3)nc(Sc3ccc(NC(=O)C4CC4)cc3)n2)n[nH]1 [Tozasertib] (partner 0.1 µM)
How it was run: (§1)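 Lung cancer cell lines in 1536-well plates got either a single drug or a fixed anchor-drug dose together with five library-drug doses (not always all listed) in √10 steps, by pin tool, on the day after seeding. Nuclei were counted after 5 days, and relative viability is the treated-to-vehicle ratio of nuclei counts. Values are medians of duplicate plates.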

Dactolisib + Olaparib = compound: Cn1c(=O)n(-c2ccc(C(C)(C)C#N)cc2)c2c3cc(-c4cnc5ccccc5c4)ccc3ncc21 [Dactolisib] + O=C(c1cc(Cc2n[nH]c(=O)c3ccccc23)ccc1F)N1CCN(C(=O)C2CC2)CC1 [Olaparib] (partner 8 µM)
How it was run: as §1

Dactolisib + Luminespib = compound: Cn1c(=O)n(-c2ccc(C(C)(C)C#N)cc2)c2c3cc(-c4cnc5ccccc5c4)ccc3ncc21 [Dactolisib] + CCNC(=O)c1noc(-c2cc(C(C)C)c(O)cc2O)c1-c1ccc(CN2CCOCC2)cc1 [Luminespib] (partner 0.01 µM)
How it was run: as §1

AZ505 + Vorinostat = compound: C1CCC(CC1)N(CCNCCC2=C3C(=C(C=C2)O)NC(=O)CO3)C(=O)CCNCCC4=CC(=C(C=C4)Cl)Cl [AZ505] + O=C(CCCCCCC(=O)Nc1ccccc1)NO [Vorinostat] (partner 1 µM)
How it was run: as §1

Cell Line | relative viability (Dactolisib + Tozasertib; first compound 0.002 µM) | relative viability (Dactolisib + Tozasertib; first compound 0.006325 µM) | relative viability (Dactolisib + Tozasertib; first compound 0.02 µM) | relative viability (Dactolisib + Tozasertib; first compound 0.06325 µM) | relative viability (Dactolisib + Tozasertib; first compound 0.2 µM) | relative viability (Dactolisib + Olaparib; first compound 0.002 µM) | relative viability (Dactolisib + Olaparib; first compound 0.006325 µM) | relative viability (Dactolisib + Olaparib; first compound 0.02 µM) | relative viability (Dactolisib + Olaparib; first compound 0.06325 µM) | relative viability (Dactolisib + Olaparib; first compound 0.2 µM) | relative viability (Dactolisib + Luminespib; first compound 0.002 µM) | relative viability (Dactolisib + Luminespib; first compound 0.006325 µM) | relative viability (Dactolisib + Luminespib; first compound 0.02 µM) | relative viability (Dactolisib + Luminespib; first compound 0.06325 µM) | relative viability (Dactolisib + Luminespib; first compound 0.2 µM) | relative viability (AZ505 + Vorinostat; first compound 0.08 µM) | relative viability (AZ505 + Vorinostat; first compound 0.253 µM) | relative viability (AZ505 + Vorinostat; first compound 0.8 µM) | relative viability (AZ505 + Vorinostat; first compound 2.53 µM) | relative viability (AZ505 + Vorinostat; first compound 8 µM)
NCI-H1437 | 0.467 | 0.425 | 0.415 | 0.518 | 0.382 | 0.686 | 0.6 | 0.629 | 0.64 | 0.543 | 1.15 | 1.18 | 1.21 | 1.14 | 0.59 | 0.828 | 0.838 | 0.858 | 0.955 | 0.823
ChaGo-K-1 | 0.248 | 0.235 | 0.221 | 0.223 | 0.211 | 0.404 | 0.419 | 0.421 | 0.457 | 0.443 | 0.622 | 0.562 | 0.582 | 0.39 | 0.463 | 0.695 | 0.758 | 0.816 | 0.682 | 0.775
NCI-H650 | 0.713 | 0.651 | 0.711 | 0.608 | 0.408 | 0.552 | 0.378 | 0.437 | 0.312 | 0.195 | 0.779 | 0.778 | 0.787 | 0.443 | 0.369 | 0.395 | 0.425 | 0.348 | 0.567 | 0.556
COR-L23 | 0.273 | 0.243 | 0.257 | 0.149 | 0.147 | 0.345 | 0.351 | 0.312 | 0.182 | 0.141 | 0.678 | 0.49 | 0.284 | 0.123 | 0.138 | 0.415 | 0.312 | 0.364 | 0.407 | 0.377
COR-L 105 | 0.413 | 0.401 | 0.35 | 0.361 | 0.289 | 0.629 | 0.744 | 0.76 | 0.592 | 0.367 | 0.776 | 0.889 | 0.55 | 0.334 | 0.254 | 0.778 | 0.87 | 0.86 | 0.902 | 0.89
LK-2 | 0.209 | 0.197 | 0.181 | 0.153 | 0.171 | 0.61 | 0.836 | 0.491 | 0.328 | 0.17 | 0.152 | 0.198 | 0.195 | 0.171 | 0.197 | 0.295 | 0.318 | 0.33 | 0.405 | 0.392
201T | 0.936 | 0.965 | 0.98 | 0.879 | 0.474 | 0.833 | 0.824 | 0.849 | 0.782 | 0.54 | 1.15 | 0.992 | 0.952 | 0.89 | 0.469 | 0.877 | 0.998 | 0.903 | 0.907 | 0.976
HCC-44 | 0.826 | 0.899 | 0.855 | 0.341 | 0.297 | 0.969 | 1.03 | 0.956 | 1.01 | 1.01 | 0.914 | 1.04 | 0.943 | 0.379 | 0.644 | 1.09 | 1.09 | 1.06 | 1.23 | 1.14
NCI-H596 | 0.942 | 0.751 | 0.632 | 0.35 | 0.32 | 0.656 | 0.719 | 0.527 | 0.417 | 0.329 | 0.925 | 0.938 | 0.583 | 0.347 | 0.28 | 0.549 | – | 0.577 | 0.612 | 0.521
H3255 | 0.525 | 0.521 | 0.682 | 0.51 | 0.432 | 0.559 | 0.56 | 0.499 | 0.475 | 0.399 | 0.843 | 0.875 | 0.912 | 0.796 | 0.511 | – | 0.799 | 0.796 | 0.84 | 0.923
NCI-H647 | 0.265 | 0.235 | 0.19 | 0.099 | 0.112 | 0.54 | 0.349 | 0.315 | 0.129 | 0.0846 | 0.153 | 0.149 | 0.109 | 0.0951 | 0.0891 | 0.446 | 0.747 | 0.529 | 0.583 | 1.06
NCI-H2023 | 0.351 | 0.312 | 0.313 | 0.109 | 0.0881 | 0.484 | 0.43 | 0.281 | 0.122 | 0.0803 | 0.643 | 0.562 | 0.217 | 0.0703 | 0.0888 | 0.57 | 0.631 | 0.63 | 0.588 | 0.835
NCI-H23 | 0.346 | 0.399 | 0.318 | 0.208 | 0.178 | 0.266 | 0.254 | 0.239 | 0.223 | 0.161 | 0.205 | 0.208 | 0.222 | 0.191 | 0.203 | 0.526 | 0.582 | 0.561 | 0.81 | 0.627
NCI-H1944 | 0.308 | 0.237 | 0.237 | 0.156 | 0.153 | 0.548 | 0.386 | 0.397 | 0.265 | 0.21 | 0.957 | 0.724 | 0.714 | 0.288 | 0.263 | 0.563 | 0.551 | 0.641 | 0.514 | 0.55
NCI-H1793 | 0.329 | 0.242 | 0.199 | 0.126 | 0.106 | 0.784 | 0.299 | 0.254 | 0.18 | 0.169 | 0.155 | 0.15 | 0.164 | 0.163 | 0.165 | 0.637 | 0.653 | 0.641 | 0.898 | 0.806
NCI-H520 | 0.425 | 0.468 | 0.365 | 0.196 | 0.218 | 0.328 | 0.308 | 0.284 | 0.144 | 0.128 | 0.22 | 0.184 | 0.233 | 0.207 | 0.204 | 0.594 | 0.847 | 0.648 | 0.731 | 0.781
